Data published in patent publication US9307761B2, “Microbial composition” (Rohm and Haas Company, priority 2011, dated 2016).

How the values were obtained:
Assay type in all cases: cell-based
[1] = tested on: Escherichia coli (10536 strain); assay: 15 seconds contact kill assay of actives in water, mean bacterial survival NMBS; conditions: E. coli; for NMBS: alone, 15 seconds contact
[2] = tested on: Escherichia coli (E. coli—ATCC #10536); assay: Automated assessment of efficacy in model surfactant medium (2.85% sodium cocoyl glycinate and 1.85% sodium lauroamphoacetate), 15 seconds exposure, delta OD450/OD590; conditions: for No. of replicates showing growth (out of 4) / Δ OD 450 nm = OD450 (time = 16 hours) − OD450 (time zero), Mean / Δ OD 590 nm OD590 (time = 16 hours) − OD590 (time zero), Mean: 15 s exposure
Protocol: Micobiocidal Activity of Actives as Per the Invention in a Model Surfactant Medium Test Methodology for Automated Assessment of Efficacy in Surfactant Base
Solutions were prepared such that the concentrations of the surfactant components and test actives were 1.1×the final desired concentration in order to allow for dilution with the bacterial inoculum in the test. The solutions were manually adjusted to […] by dropwise addition of sodium hydroxide solution, as measured with a pH meter at ambient temperature.
Tests were conducted using standard microtiter plate assays using an automated liquid handling system, 270 μl of the surfactant test solution was pipetted into each well of the microtitre plate and 30 μl of the bacterial suspension was then added. After exactly 15 seconds of bacterial exposure, a 30 μl volume of bacterial cells was withdrawn and transferred to 270 μl of D/E quench solution. After 5 minutes in the D/E quench, the optical density (OD) was measured for each plate in turn at two specific wavelengths (450 nm and 590 nm). These provide a dual check of antimicrobial activity, as the OD450 reading is specific for the yellow colour of D/E quench when bacterial growth is observed, whereas OD590 is specific for the initial purple colour of the D/E quench which is retained if no bacterial growth is observed. After the time zero OD measurements, plates were then incubated at 37° C. overnight (16 hours) before repeating the OD measurements. Delta OD values were calculated by subtracting […]. Bacterial growth is observed as art increase in OD450 and a decrease in ΔOD590. To identify antibacterially efficacious systems (those preventing appreciable bacterial growth after incubation), the following threshold changes in OD readings have been adopted: if (1). OD450 increases by less than 0.2 absorbance unit on incubation and (2). OD590 decreases by less than 0.35 unit on incubation. Conversely, where OD450 increases by more than 0.2 AU and OD590 decreases by more than 0.35 unit after incubation, corresponding to a colour shift from purple to yellow, the test system allows bacterial growth and is not deemed efficacious, four replicate measurements in the same plate have been made for each test system. The number of replicate wells showing either bacterial growth or no growth is also readily assessed by eye by following the colour change.
Dose responses for individual components and binary mixtures of actives at a fixed concentration ratio were generated by sequential dilution of liquors with further surfactant solution to obtain a series of endpoints.
In some selected cases, the combinations were also tested at the weight ratio 1:1.

[3] = tested on: Staphylococcus aureus (10788 strain); assay: Antimicrobial efficacy of actives against S. aureus in water, 15 seconds contact; conditions: for MBC (minimum biocidal concentration): against S. Aureus, in water; for NMBS: S. aureus
S. aureus = assay: Synergy of terpinyl alcohols with phenolic compounds in water against S. aureus, log reduction after 15 seconds contact
Protocol: The procedure used was as follows:
Liquid actives were used directly. Solid actives were dissolved in alcohol and a 50% stock was made.
Preparation of Test Cultures:
The culture was grown overnight in Tryptone soya agar.
To 9 ml water the actives were added to give the desired concentration. 1 ml of the culture was added and mixed. After 15 seconds contact 1 ml aliquot was removed and added to a neutraliser and kept for 5 minutes. A control of untreated cells was similarly processed. It was then diluted and plated. The plates were incubated at 37° C. for 24 hours. The colonies on the plates were counted. The counts were converted to log10. The log no. of survivors was determined and log reduction calculated.

[4] = tested on: Escherichia coli (E. coli—ATCC #10536); assay: Synergy tests: high resolution MBC microtiter plate assay, 15 seconds contact, phosphate buffer containing […] dipropylene glycol; conditions: E. coli 10536; at Qa and Qb; <1 synergy, 1 additivity, >1 antagonism
Description: The concentrations and ratios may also vary under different test conditions or with different test methods.
One measure of synergy is the industrially accepted method described by Kull, F. C.; Eisman, P. C.; Sylwestrowicz, H. D. and Mayer, R. L., in Applied Microbiology 9:538-541 (1961), using the ratio determined by the formula: Qa/QA+Qb/QB=Synergy Index (“SI”) wherein: • QA=concentration of compound A (first component) in percent, acting alone, which produced an end point (MBC of Compound A). • Qa=concentration of compound A in percent, in the mixture, which produced an end point. • QB=concentration of compound B (second component) in percent, acting alone, which produced an end point (MBC of Compound B). • Qb=concentration of compound B in percent, in the mixture, which produced an end point.
When the sum of Qa/QA and Qb/QB is greater than one, antagonism is indicated. […] The lower the SI, the greater is the synergy shown by that particular mixture. The minimum biocidal concentration (MBC) of a microbicide is the lowest concentration tested under a specific set of conditions that provides complete kill of the tested microorganisms.
Synergy tests were conducted using standard microtiter plate assays with phosphate buffer containing 3.5% dipropylene glycol (DPG). In this method, a wide range of combinations of chemicals was tested by conducting high resolution MBC assays of Component (A) in the presence of various concentrations of Component (B). High resolution MBCs were determined by adding varying amounts of microbicide to one column of a microtiter plate and doing subsequent […] dilutions using an automated liquid handling system to obtain a series of closely spaced endpoints. The MBC plate was inoculated one column at a time with the test microorganism. An aliquot of the inoculated well was transferred at 15 seconds to a plate containing a neutralizing agent (D/E Neutralizing Broth), mixed and held for 5 minutes before being transferred to a growth plate containing trypticase soy broth (TSB). The TSB plate was incubated at 37° C. and read for the presence/absence of growth at 24 hours. The lowest level tested that provided complete kill (as evidenced by no growth in the microtitre plate) of the test organisms in 15 seconds is the minimum biocidal concentration (MBC).
The synergy of the combinations of the present invention was determined against a bacterium, Escherichia coli (E. coli—ATCC #10536), at a concentration of approximately 1×10^8 bacteria, per mL. This microorganism is representative of natural contaminants in many consumer and industrial applications.

[5] = single active alone at 0.05% w/v, model surfactant solution
[6] = single active alone at 0.1% w/v, model surfactant solution
[7] = single active alone at […] w/v, model surfactant solution
[8] = single active alone at 0.125% w/v, water

SMILES: CCCc1ccccc1O [2-n-propylphenol]
- NMBS ([1]; 0.05% w/v): 7.71 log CFU/ml
- NMBS ([1]; 0.125% w/v): 0 log CFU/ml
- MBC (minimum biocidal concentration) ([1]; in water, component alone): 0.125 % w/v
- NMBS ([1]; […] w/v): 0 log CFU/ml
- No. of replicates showing growth (out of 4) [2, 5]: 4
- Δ OD 450 nm = OD450 (time = 16 hours) − OD450 (time zero), Mean [2, 5]: −1.43
- Δ OD 590 nm OD590 (time = 16 hours) − OD590 (time zero), Mean [2, 5]: 0.46
- No. of replicates showing growth (out of 4) [2, 6]: 4
- Δ OD 450 nm = OD450 (time = 16 hours) − OD450 (time zero), Mean [2, 6]: −1.42
- Δ OD 590 nm OD590 (time = 16 hours) − OD590 (time zero), Mean [2, 6]: 0.46
- No. of replicates showing growth (out of 4) [2, 7]: 4
- Δ OD 450 nm = OD450 (time = 16 hours) − OD450 (time zero), Mean [2, 7]: −1.15
- Δ OD 590 nm OD590 (time = 16 hours) − OD590 (time zero), Mean [2, 7]: 0.66
- MBC (minimum biocidal concentration) [3]: 0.25 % w/v
- MBC of phenol ([3]; phenol alone, complete bacterial kill against S. aureus, water): 0.25 % (w/v)
- NMBS ([3]; single active alone at 0.1% w/v, water): 7.30 log CFU/ml
- NMBS [3, 8]: 7.19 log CFU/ml
- NMBS ([3]; single active alone at […] w/v, water): 0 log CFU/ml

SMILES: CCC(C)c1ccc(O)cc1 (centres unmarked) [4-sec butyl phenol]
- Log reduction S. aureus ATCC 6538 (S. aureus; phenolic compound alone at 0.05%): 0.0

SMILES: C=C(C)[C@@H]1CC=C(CO)CC1 [(4S)-(4-(prop-1-en-2-yl)cyclohex-1-enyl)methanol]
- SI (Synergy Index = Qa/QA + Qb/QB) [4]: 1.00
- MBC ([2]; Escherichia coli, ATCC10536, 15 s, in 2.85% sodium cocoyl glycinate + 1.85% sodium lauroamphoacetate solution at pH 10, E. coli, read-out: MBC (minimum biocidal concentration)): 4000 µg/mL
- MBC of terpene alcohol ([2]; terpene alcohol alone, complete bacterial kill against E. coli, model surfactant solution): 0.4 % (w/v)
- MBC (minimum biocidal concentration) [3]: >1.0 % w/v
- NMBS [3, 8]: 7.19 log CFU/ml
- NMBS ([3]; single active alone at 0.4% w/v, water): 7.14 log CFU/ml
- NMBS ([3]; single active alone at 0.625% w/v, water): 7.15 log CFU/ml
- NMBS ([3]; single active alone at 1.0% w/v, water): 7.39 log CFU/ml
- MBC of terpene alcohol ([3]; terpene alcohol alone, complete bacterial kill against S. aureus, water): 1.0 % (w/v)

SMILES: C=C(C)[C@@H]1CC=C(CO)CC1 [perillyl alcohol]
- Log reduction S. aureus ATCC 6538 (S. aureus; terpinyl alcohol alone at […]): −0.6
